Legend:
[1] = target: human CYP11B2 (Homo sapiens (Human), UniProt P19099); experiment: Inhibitory activity against hCYP11B2 in G-402 CYP11B2 high expression stable transformants (aldosterone HTRF); assay type: cell-based; conditions: for IC50: G-402 CYP11B2 cells, 0.2 μM 11-deoxycorticosterone, 16 hours, read-out: hCYP11B2 (AS) Abs IC50; for hCYP11B ½ Selectivity Fold: hCYP11B1 IC50 relative to hCYP11B2 IC50; for selectivity (in words): hCYP11B2 versus hCYP11B1, compared with reference Baxdrostat
Sequence of human CYP11B2 (P19099 25-503): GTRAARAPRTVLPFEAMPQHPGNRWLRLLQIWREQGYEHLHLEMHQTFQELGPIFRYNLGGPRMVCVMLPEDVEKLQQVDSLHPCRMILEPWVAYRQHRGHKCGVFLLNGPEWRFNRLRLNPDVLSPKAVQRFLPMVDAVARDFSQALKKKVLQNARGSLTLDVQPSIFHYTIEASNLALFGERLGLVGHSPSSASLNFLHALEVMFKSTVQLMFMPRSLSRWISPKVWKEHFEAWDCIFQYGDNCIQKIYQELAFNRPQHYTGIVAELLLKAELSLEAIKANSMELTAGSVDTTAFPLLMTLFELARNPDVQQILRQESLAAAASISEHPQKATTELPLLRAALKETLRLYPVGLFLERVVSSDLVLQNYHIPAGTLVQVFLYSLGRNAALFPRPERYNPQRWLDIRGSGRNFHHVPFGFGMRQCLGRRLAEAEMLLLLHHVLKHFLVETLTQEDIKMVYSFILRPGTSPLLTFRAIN
Experimental: (§1) 1. Experimental System: G-402 CYP11B2 or CYP11B1 High Expression Stable Transformants
(§2) The above-mentioned high-expression stable transformants were constructed based on human […] cell line G-402. The artificial lentiviruses were introduced into human CYP11B2 (NM_000498.3) and CYP11B1 (NM_000497.4), respectively.
(§3) Maintenance medium: McCoy's 5A (modified, #16600082, GIBCO)+10% FBS (GIBCO)+1 μg/mL puromycin (A1113803, GIBCO).
(§4) Resuscitation and seeding medium: McCoy's 5A (modified, #16600082, GIBCO)+10% FBS (GIBCO).
(§5) Reaction medium: DMEM/F12 (#11320033, GIBCO)+2.5% activated charcoal filtered FBS (S11695, R & D).
(§6) Seeding: Cells were cultured to a suitable state after resuscitation with maintenance medium, and 96-well flat plates were seeded with seeding medium according to 1×10^4/100 μL/well (unified cell volume).
(§7) Changing solution: The supernatant was aspirated and discarded after seeding overnight (>12 hours) and adherence. 100-150 μL/well serum-free medium was added, and after being aspirated. After aspiration, 50 μL/well reaction medium was added for later use.
(§8) Formulation: Compound was diluted with reaction medium containing 0.4 μM substrate (final experimental concentration is 0.2 μM):
CYP11B2 substrate: 11-deoxycorticosterone (11-deoxycorticosterone, S4243, selleckchem). The final reaction concentration was 0.2 μM
(§9) Loading: The above compound dilutions were added to the cell plates at 50 μL/well. The background and control wells were set.
(§10) Treating and sampling: The cell plates were incubated in a cell incubator for 16 hours after loading, and then each cell plate was centrifuged at 450 g for 2 min. 75 μL supernatant was transferred to a collection plate and frozen at −80° C. for future use (or direct detection).
(§11) Detection: Homogeneous time-resolved fluorescence kit (Cisbio HTRF kit, Cat.64ALDPEG, Cat.62CRTPEG) was used to determine the concentration of aldosterone or cortisol in the supernatant.
(§12) Analysis: The absolute IC50 (Abs IC50) for each compound was calculated using a four parameter fit.

[2] = target: human CYP11B1 (Homo sapiens (Human), UniProt P15538); experiment: Inhibitory activity against hCYP11B1 in G-402 CYP11B1 high expression stable transformants (cortisol HTRF); assay type: cell-based; conditions: G-402 CYP11B1 cells, 0.2 μM 11-deoxycortisol, 16 hours; read-out: hCYP11B1 Abs IC50
Sequence of human CYP11B1 (P15538 25-503): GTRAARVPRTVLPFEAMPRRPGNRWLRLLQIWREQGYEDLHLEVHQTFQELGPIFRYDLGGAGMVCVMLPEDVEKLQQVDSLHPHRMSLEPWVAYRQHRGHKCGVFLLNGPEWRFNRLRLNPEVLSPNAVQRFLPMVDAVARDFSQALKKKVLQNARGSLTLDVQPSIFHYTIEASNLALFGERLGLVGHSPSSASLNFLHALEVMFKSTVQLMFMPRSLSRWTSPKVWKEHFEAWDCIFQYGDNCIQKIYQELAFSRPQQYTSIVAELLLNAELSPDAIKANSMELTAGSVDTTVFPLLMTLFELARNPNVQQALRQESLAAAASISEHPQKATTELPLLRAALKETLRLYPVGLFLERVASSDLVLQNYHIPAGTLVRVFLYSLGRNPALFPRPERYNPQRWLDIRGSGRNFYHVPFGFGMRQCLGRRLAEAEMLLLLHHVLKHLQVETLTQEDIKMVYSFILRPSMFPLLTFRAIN
Experimental: as §1, §2, §3, §4, §5, §6, §7, §8
CYP11B1 substrate: 11-deoxycortisol (11-deoxycortisol, S4775, selleckchem). The final reaction concentration was 0.2 μM.
as §9, §10, §11, §12

[3] = target: CYP1A2 (Homo sapiens (Human), UniProt P05177); experiment: In vitro inhibitory activity against common CYP450 enzymes: CYP1A2; assay type: in vitro ADME; conditions: human, microsomes, 10 min
Sequence of CYP1A2 (P05177 whole entry): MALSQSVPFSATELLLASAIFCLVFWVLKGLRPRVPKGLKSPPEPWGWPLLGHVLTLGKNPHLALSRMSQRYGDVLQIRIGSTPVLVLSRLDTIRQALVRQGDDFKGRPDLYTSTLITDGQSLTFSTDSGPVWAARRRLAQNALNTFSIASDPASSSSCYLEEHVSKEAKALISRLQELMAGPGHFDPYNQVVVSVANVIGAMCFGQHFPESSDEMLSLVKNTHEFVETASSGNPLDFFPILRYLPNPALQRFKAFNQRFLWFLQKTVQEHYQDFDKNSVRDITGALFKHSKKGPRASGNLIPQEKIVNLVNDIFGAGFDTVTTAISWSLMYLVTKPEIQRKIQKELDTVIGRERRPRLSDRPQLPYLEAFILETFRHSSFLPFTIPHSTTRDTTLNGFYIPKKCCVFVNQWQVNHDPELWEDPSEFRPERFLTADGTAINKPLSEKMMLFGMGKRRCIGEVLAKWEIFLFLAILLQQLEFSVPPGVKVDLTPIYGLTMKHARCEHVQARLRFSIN
Experimental: (§13) A working solution of the test compound was prepared in a solvent of dimethyl sulfoxide (DMSO) (starting at a final concentration of 50 μM, 3-fold dilution of 7 concentration points). The corresponding microsomes (CORNING, Cat No.452117) and the corresponding substrate solution were prepared (components were shown in Table 2). The working solution of the test compound and the corresponding microsomes were mixed with the corresponding substrate solution and the HLM working solution. The mixture was preheated in a 37.0° C. water bath for 10 min. NADPH cofactor (BONTAC, Cat No.BT04) was added. The resultant mixture was incubated for 10 min in a 37.0° C. water bath. The reaction was terminated by adding cold stop solution. [table] [table] The sample was centrifuged at 4000 rpm for 20 min to precipitate protein and the supernatant was transferred to HPLC water and shaken for 10 min.

[4] = target: CYP2C9 (Homo sapiens (Human), UniProt P11712); experiment: In vitro inhibitory activity against common CYP450 enzymes: CYP2C9; assay type: in vitro ADME; conditions: microsomes, substrate Diclofenac
Sequence of CYP2C9 (P11712 whole entry): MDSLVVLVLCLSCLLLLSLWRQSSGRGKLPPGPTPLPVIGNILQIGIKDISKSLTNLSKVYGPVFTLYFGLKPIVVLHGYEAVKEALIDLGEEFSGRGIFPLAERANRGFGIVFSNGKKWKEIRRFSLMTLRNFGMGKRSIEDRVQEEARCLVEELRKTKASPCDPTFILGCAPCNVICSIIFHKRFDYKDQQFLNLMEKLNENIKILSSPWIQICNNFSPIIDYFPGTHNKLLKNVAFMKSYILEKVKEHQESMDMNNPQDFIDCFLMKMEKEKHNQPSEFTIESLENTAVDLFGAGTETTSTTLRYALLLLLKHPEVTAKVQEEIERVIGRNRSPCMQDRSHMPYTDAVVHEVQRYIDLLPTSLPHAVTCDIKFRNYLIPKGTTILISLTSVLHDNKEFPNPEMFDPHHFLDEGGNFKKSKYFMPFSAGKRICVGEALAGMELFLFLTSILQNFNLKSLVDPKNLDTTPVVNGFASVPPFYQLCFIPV
Experimental: as §13

[5] = target: CYP2C19 (Homo sapiens (Human), UniProt P33261); experiment: In vitro inhibitory activity against common CYP450 enzymes: CYP2C19; assay type: in vitro ADME; conditions: microsomes, substrate (S)-(+)-Mephenytoin
Sequence of CYP2C19 (P33261 whole entry): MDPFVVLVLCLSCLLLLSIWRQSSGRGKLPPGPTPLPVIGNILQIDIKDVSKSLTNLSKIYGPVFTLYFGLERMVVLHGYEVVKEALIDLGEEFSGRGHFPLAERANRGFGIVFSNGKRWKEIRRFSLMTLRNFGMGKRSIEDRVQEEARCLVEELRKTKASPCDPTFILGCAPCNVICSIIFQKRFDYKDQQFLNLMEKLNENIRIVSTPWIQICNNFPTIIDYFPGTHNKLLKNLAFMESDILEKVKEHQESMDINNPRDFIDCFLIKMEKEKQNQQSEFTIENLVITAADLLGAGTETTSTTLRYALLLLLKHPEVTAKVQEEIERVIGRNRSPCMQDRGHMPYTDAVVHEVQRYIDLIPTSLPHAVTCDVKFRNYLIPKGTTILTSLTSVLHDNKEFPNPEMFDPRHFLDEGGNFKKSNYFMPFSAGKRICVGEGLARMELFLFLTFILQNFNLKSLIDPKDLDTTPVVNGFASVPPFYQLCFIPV
Experimental: as §13

[6] = target: CYP2D6 (Homo sapiens (Human), UniProt P10635); experiment: In vitro inhibitory activity against common CYP450 enzymes: CYP2D6; assay type: in vitro ADME; conditions: microsomes, substrate Dextromethorphan
Sequence of CYP2D6 (P10635 whole entry): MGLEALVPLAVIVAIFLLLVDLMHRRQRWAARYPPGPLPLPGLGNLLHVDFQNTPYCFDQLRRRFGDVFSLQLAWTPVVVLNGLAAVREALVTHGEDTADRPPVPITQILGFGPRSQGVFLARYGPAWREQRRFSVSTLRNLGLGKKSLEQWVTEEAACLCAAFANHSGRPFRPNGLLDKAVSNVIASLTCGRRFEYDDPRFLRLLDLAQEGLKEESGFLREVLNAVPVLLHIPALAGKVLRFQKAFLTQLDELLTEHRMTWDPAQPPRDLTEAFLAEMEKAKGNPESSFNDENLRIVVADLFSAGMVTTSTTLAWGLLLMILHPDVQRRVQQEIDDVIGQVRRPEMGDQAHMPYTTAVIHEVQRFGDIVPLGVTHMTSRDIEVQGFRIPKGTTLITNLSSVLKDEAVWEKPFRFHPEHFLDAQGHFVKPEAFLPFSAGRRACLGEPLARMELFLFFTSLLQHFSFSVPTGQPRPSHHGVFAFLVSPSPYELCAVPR
Experimental: as §13

[7] = target: CYP3A (Homo sapiens, UniProt P08684); experiment: In vitro inhibitory activity against common CYP450 enzymes: CYP3A (midazolam); assay type: in vitro ADME; conditions: human, human liver microsomes, probe Midazolam, substrate Midazolam
Sequence of CYP3A (P08684 2-503 limits assumed): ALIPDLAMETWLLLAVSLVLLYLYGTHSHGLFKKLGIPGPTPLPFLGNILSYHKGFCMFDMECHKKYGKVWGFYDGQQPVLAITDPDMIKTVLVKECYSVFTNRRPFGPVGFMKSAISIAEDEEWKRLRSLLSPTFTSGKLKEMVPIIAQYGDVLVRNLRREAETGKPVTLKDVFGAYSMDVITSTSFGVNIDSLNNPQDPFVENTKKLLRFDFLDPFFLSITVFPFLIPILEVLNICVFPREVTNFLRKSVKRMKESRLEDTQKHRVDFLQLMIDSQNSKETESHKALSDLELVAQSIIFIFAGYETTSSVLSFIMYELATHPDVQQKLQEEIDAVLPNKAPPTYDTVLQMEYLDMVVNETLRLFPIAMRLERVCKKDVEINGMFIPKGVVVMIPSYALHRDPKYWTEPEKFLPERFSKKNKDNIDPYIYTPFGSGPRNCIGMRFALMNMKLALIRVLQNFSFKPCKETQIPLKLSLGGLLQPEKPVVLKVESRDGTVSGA
Experimental: as §13

[8] = tested on: aldosterone synthesis; experiment: Pharmacodynamic test in cynomolgus monkeys with ACTH stimulation: aldosterone in plasma; assay type: in vivo, cynomolgus monkeys (Macaca fascicularis); conditions: 0.05 mg/kg oral
Excerpt: (§14) Adult cynomolgus monkeys (Macaca fascicularis) with suitable body weight and age were selected. 1 male and 1 female cynomolgus monkeys were used for experiment. The adaptation period was 1 week. On the day of the experiment, monkeys were individually housed in stainless steel mesh cages for testing.
(§15) Oral treatment and ACTH working solution (working solution diluted to the desired concentration in PBS sterile solution by ultrapure water filtration through a 0.22 μm filter using Tetracosactrin (HY-P0060, MCE)) were administered as follows: • T=0, 2 monkeys in each group were orally administered 0.5 mg/kg (compound was suspended in 5% aqueous sodium hydroxymethylcellulose solution as vehicle) in a fixed volume of 2 mL/kg; • T=+1 hour (i.e., 1 hour after administration), 14.5 μg/kg of the aforementioned ACTH working solution was injected intramuscularly.
(§16) Sampling test: Blood samples (collected in EDTA anticoagulant tubes) were collected before oral administration (Pre-dose) and 0.5 h, 1 h, 2 h, 4 h, 6 h and 12 h after administration for cortisol concentration measurement in plasma. The blood was centrifuged at 10000 rpm for 15 minutes at 4° C., followed by separation of the plasma and uniform storage at −80° C. for further analysis using an Roche biochemical analyzer to detect aldosterone and cortisol in plasma, and a portion of the plasma (0.5 h, 1 h, 2 h, 4 h, 6 h, and 12 h after administration, and an additional blood collection after 24 h) was taken simultaneously to determine the pharmacokinetic parameters by LC/MS.
(§17) The above experiment was repeated except that: T=0, two monkeys in each group were orally administered at a dose of 0.05 mg/kg (compound was suspended in 5% aqueous sodium hydroxymethylcellulose as vehicle) in a fixed volume of 2 mL/kg.

[9] = tested on: cortisol levels; experiment: Pharmacodynamic test in cynomolgus monkeys with ACTH stimulation: cortisol in plasma; assay type: in vivo, cynomolgus monkeys (Macaca fascicularis); conditions: 0.05 mg/kg oral
Excerpt: as §14, §15, §16, §17

[10] = Pharmacokinetic test in cynomolgus monkeys (LC/MS); assay type: in vivo, cynomolgus monkeys (Macaca fascicularis); conditions: for Cmax / Tmax / half-life / AUC(0-t): both sexes, cynomolgus monkey, plasma, 0.05 mg/kg, 0.05mpk oral; for AUC(0-t): read-out: AUC0-24 h
Excerpt: as §14, §15, §16, §17

## CN(C)C(=O)N[C@@H]1CCOc2c(-c3ccc4c(c3)CCC(=O)N4C)cncc21 [Example 3, (R)-1,1-dimethyl-3-(8-(1-methyl-2-oxo-1,2,3,4-tetrahydroquinolin-6-yl)-3,4-dihydro-2H-pyran[3,2-c]pyridin-4-yl)urea]
[1]
  IC50: 0.0611 µM
  hCYP11B ½ Selectivity Fold: 85.95 Fold
[2]
  IC50: 5.25 µM

## CCC(=O)N[C@@H]1CCOc2c(-c3cc4c(cc3F)N(C)C(=O)CC4)cncc21 [Example 8, (R)-N-(8-(7-Fluoro-1-methyl-2-oxo-1,2,3,4-tetrahydroquinolin-6-yl)-3,4-dihydro-2H-pyran[3,2-c]pyridin-4-yl)propanamide]
[1]
  IC50: 0.0231 µM
  hCYP11B ½ Selectivity Fold: 199 Fold
  selectivity (in words): better selectivity
[2]
  IC50: 4.6 µM
[3]
  IC50: > 50 µM
[4]
  IC50: > 50 µM
[5]
  IC50: > 50 µM
[6]
  IC50: > 50 µM
[7]
  IC50 at 10 min: > 50 µM
[8]
  effect on aldosterone synthesis (in words): significantly inhibited aldosterone synthesis
[8]; 0.5 h
  Aldosterone Concentration in Plasma: 557.64 pg/mL
[8]; 1 h (ACTH at +1 hour)
  Aldosterone Concentration in Plasma: 350.13 pg/mL
[8]; 2 h
  Aldosterone Concentration in Plasma: 139.86 pg/mL
[8]; 4 h
  Aldosterone Concentration in Plasma: 81.71 pg/mL
[8]; 6 h
  Aldosterone Concentration in Plasma: 84.08 pg/mL
[8]; 12 h
  Aldosterone Concentration in Plasma: 91.38 pg/mL
[8]; Pre-dose
  Aldosterone Concentration in Plasma: 421.96 pg/mL
[9]; 0.5 h
  Cortisol Concentration in Plasma: 1590.4 pg/mL
[9]; 1 h (ACTH at +1 hour)
  Cortisol Concentration in Plasma: 1335.6 pg/mL
[9]; 2 h
  Cortisol Concentration in Plasma: 1990.5 pg/mL
[9]; 4 h
  Cortisol Concentration in Plasma: 818.4 pg/mL
[9]; 6 h
  Cortisol Concentration in Plasma: 410.8 pg/mL
[9]; 12 h
  Cortisol Concentration in Plasma: 487.5 pg/mL
[9]; Pre-dose
  Cortisol Concentration in Plasma: 831.6 pg/mL
[10]
  Cmax: 0.0227 µg/mL
  Tmax: 2 h
  half-life: 12.7 h
  AUC(0-t): 0.332 µg·h/mL
[10]; same dose
  Cmax and AUC relative to the reference Baxdrostat: three times as high
[10]; same dose (0.05mpk)
  Cmax and AUC values relative to the compound of Example 2: twice as high

## [2H][C@@]1(NC(=O)N(C)C)CCOc2c(-c3ccc4c(c3)CCC(=O)N4C)cncc21 [Example 5, (R)-1,1-dimethyl-3-(8-(1-methyl-2-oxo-1,2,3,4-tetrahydroquinolin-6-yl)-3,4-dihydro-2H-pyran[3,2-c]pyridin-4-yl-4-d)urea]
[1]
  IC50: 0.0496 µM
  hCYP11B ½ Selectivity Fold: 68.19 Fold
[2]
  IC50: 3.38 µM

## CN(C)C(=O)N[C@@H]1CCOc2c(-c3cc4c(cc3F)N(C)C(=O)CC4)cncc21 [Example 6, (R)-3-(8-(7-fluoro-1-methyl-2-oxo-1,2,3,4-tetrahydroquinolin-6-yl)-3,4-dihydro-2H-pyran[3,2-c]pyridin-4-yl)-1,1-dimethylurea]
[1]
  IC50: 0.0773 µM
  hCYP11B ½ Selectivity Fold: >129.37 Fold
  selectivity (in words): better selectivity
[2]
  IC50: > 10 µM

## [2H][C@@]1(NC(=O)CC)CCOc2c(-c3ccc4c(c3)CCC(=O)N4C)cncc21 [Example 2, (R)-N-(8-(1-methyl-2-oxo-1,2,3,4-tetrahydroquinolin-6-yl)-3,4-dihydro-2H-pyran[3,2-c]pyridin-4-yl-4-D)propanamide]
[1]
  IC50: 0.0371 µM
  hCYP11B ½ Selectivity Fold: 144.47 Fold
  selectivity (in words): better selectivity
[2]
  IC50: 5.36 µM
[8]
  effect on aldosterone synthesis (in words): no potent inhibition of aldosterone synthesis
[8]; 0.5 h
  Aldosterone Concentration in Plasma: 1057.1 pg/mL
[8]; 1 h (ACTH at +1 hour)
  Aldosterone Concentration in Plasma: 807.59 pg/mL
[8]; 2 h
  Aldosterone Concentration in Plasma: 337.76 pg/mL
[8]; 4 h
  Aldosterone Concentration in Plasma: 105.97 pg/mL
[8]; 6 h
  Aldosterone Concentration in Plasma: 101.15 pg/mL
[8]; 12 h
  Aldosterone Concentration in Plasma: 112.02 pg/mL
[8]; Pre-dose
  Aldosterone Concentration in Plasma: 432.52 pg/mL
[9]; 0.5 h
  Cortisol Concentration in Plasma: 1299.9 pg/mL
[9]; 1 h (ACTH at +1 hour)
  Cortisol Concentration in Plasma: 1178.3 pg/mL
[9]; 2 h
  Cortisol Concentration in Plasma: 1809.0 pg/mL
[9]; 4 h
  Cortisol Concentration in Plasma: 872.2 pg/mL
[9]; 6 h
  Cortisol Concentration in Plasma: 451.8 pg/mL
[9]; 12 h
  Cortisol Concentration in Plasma: 710.2 pg/mL
[9]; Pre-dose
  Cortisol Concentration in Plasma: 838.9 pg/mL
[10]
  Cmax: 0.0119 µg/mL
  Tmax: 2 h
  half-life: 9.7 h
  AUC(0-t): 0.165 µg·h/mL

## [2H][C@@]1(NC(=O)CC)CCOc2c(-c3cc4c(cc3F)N(C)C(=O)CC4)cncc21 [Example 4, (R)-N-(8-(7-fluoro-1-methyl-2-oxo-1,2,3,4-tetrahydroquinolin-6-yl)-3,4-dihydro-2H-pyran[3,2-c]pyridin-4-yl-4-d)propanamide]
[1]
  IC50: 0.0427 µM
  hCYP11B ½ Selectivity Fold: 112.51 Fold
[2]
  IC50: 4.8 µM

## [2H][C@@]1(NC(=O)N(C)C)CCOc2c(-c3cc4c(cc3F)N(C)C(=O)CC4)cncc21 [Example 7, (R)-3-(8-(7-Fluoro-1-methyl-2-oxo-1,2,3,4-tetrahydroquinolin-6-yl)-3,4-dihydro-2H-pyran[3,2-c]pyridin-4-yl-4-d)-1,1-dimethylurea]
[1]
  IC50: 0.172 µM
  hCYP11B ½ Selectivity Fold: >58 Fold
[2]
  IC50: > 10 µM

Source: patent publication US20250361240A1, “PYRANOPYRIDINE COMPOUND, PROCESS FOR PREPARING THE SAME, PHARMACEUTICAL COMPOSITION AND USE THEREOF” (Zhejiang Yangli Pharmaceutical Technology Co., Ltd., priority 2024, published 2025)
